Measurements taken from patent publication US20230000813A1, “COMPOUND FOR THE TREATMENT OF BOVINE OR SWINE RESPIRATORY DISEASE” (Intervet Inc., priority 2016, published 2023).
Values after ≈ are worked out from the molar mass of the structure shown.

What was measured:
Experiment in all cases: MIC, broth-microdilution (CLSI VET01-A4)
Assay type in all cases: cell-based
[1] = test system: Mannheimia haemolytica MH 10720 (154, BRD field isolate); settings: Mannheimia haemolytica MH 10720; for MIC: read-out: MIC MH 10720
Summary of the method: (§1)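 Compounds were tested in microdilution trays as twofold serial dilutions. The MIC was taken as the lowest concentration with no turbidity visible to the unaided eye, and results were interpreted per CLSI VET01-S3.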

[2] = test system: Mannheimia haemolytica MH 12587 (1071, BRD field isolate, macrolide-resistance: erm+, E+); settings: Mannheimia haemolytica MH 12587, macrolide-resistant
Summary of the method: as §1

[3] = test system: Mannheimia haemolytica MH 6357 (M7/2, reference strain, cattle infection strain); settings: Mannheimia haemolytica MH 6357; read-out: MIC MH 6357
Summary of the method: as §1

[4] = test system: Mannheimia haemolytica MH 6374 (ATCC 33396, reference strain); settings: Mannheimia haemolytica MH 6374; read-out: MIC MH 6374
Summary of the method: as §1

[5] = test system: Pasteurella multocida PM 10775 (080130003051, BRD field isolate); settings: Pasteurella multocida PM 10775
Summary of the method: as §1

[6] = test system: Pasteurella multocida PM 12080 (IV102277-0093, BRD field isolate); settings: Pasteurella multocida PM 12080; for MIC: read-out: MIC PM 12080
Summary of the method: as §1

[7] = test system: Pasteurella multocida PM 6267 (P 2225 (L386), reference strain, mouse infection strain); settings: Pasteurella multocida PM 6267; for MIC: read-out: MIC PM 6267
Summary of the method: as §1

[8] = test system: Pasteurella multocida PM 6391 (ATCC 43137, reference strain); settings: Pasteurella multocida PM 6391; for MIC: read-out: MIC PM 6391
Summary of the method: as §1

[9] = test system: Mannheimia haemolytica MH 13065 (XB0446-6003.9, BRD field isolate)
Summary of the method: (§2)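 Broth microdilution per CLSI VET01-A4 using doubling dilution series of compound. MIC taken as the lowest concentration with no turbidity visible to the unaided eye, interpreted per CLSI VET01-S3.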

[10] = test system: Mannheimia haemolytica MH 13093 (XB0472-6014.1, BRD field isolate)
Summary of the method: as §2

Row | Structure (SMILES) | MIC MH 10720 [1] | MIC MH 12587 [2] | MIC [3] | MIC [4] | MIC PM 10775 [5] | MIC PM 12080 [6] | MIC PM 6267 [7] | MIC PM 6391 [8] | MIC [9] | MIC [10] | MIC [6] | MIC [8] | MIC [1] | MIC [7]
1 | C[C@@H](O)[C@H](NC(=O)c1ccc(C#Cc2ccc(CNCc3ccnc(Cl)c3)cc2)cc1)C(=O)NO [Compound 257] | <=0.1 μM | 0.8 µM (≈ 0.394 µg/mL) | 0.2 µM (≈ 0.0986 µg/mL) | 0.2 µM (≈ 0.0986 µg/mL) | <=0.1 μM | <=0.1 μM | <=0.1 μM | <=0.1 μM | 0.4 µM (≈ 0.197 µg/mL) | 0.4 µM (≈ 0.197 µg/mL) |  |  |  | 
2 | CCC(C)C(NC(=O)c1ccc(C#Cc2ccc(CNC3CC3)cc2)cc1)C(=O)NO (stereo not drawn) [Compound 164] | <=0.1 μM | 0.8 µM (≈ 0.336 µg/mL) | 0.391 µM (≈ 0.164 µg/mL) | 0.781 µM (≈ 0.328 µg/mL) | <=0.1 μM |  | <=0.1 μM |  | 0.4 µM (≈ 0.168 µg/mL) | 0.4 µM (≈ 0.168 µg/mL) | 0.2 µM (≈ 0.0839 µg/mL) | 0.391 µM (≈ 0.164 µg/mL) |  | 
3 | CC(C)([C@H](NC(=O)c1ccc(C#Cc2ccc(CNCc3ccnc(Cl)c3)cc2)cc1)C(=O)NO)S(C)(=O)=O [Compound 614] | <=0.1 μM | 0.8 µM (≈ 0.455 µg/mL) | 0.4 µM (≈ 0.228 µg/mL) | 0.4 µM (≈ 0.228 µg/mL) | <=0.1 μM | <=0.1 μM | <=0.1 μM | <=0.1 μM | 0.2 µM (≈ 0.114 µg/mL) | 0.4 µM (≈ 0.228 µg/mL) |  |  |  | 
4 | CC(C)(N)C(NC(=O)c1ccc(C#Cc2ccc(CNCc3cccnc3)cc2)cc1)C(=O)NO (racemic) [C. 364] |  | 1.6 µM (≈ 0.754 µg/mL) | 1.6 µM (≈ 0.754 µg/mL) | 1.6 µM (≈ 0.754 µg/mL) | <=0.1 μM | <=0.1 μM | <=0.1 μM |  | 0.8 µM (≈ 0.377 µg/mL) | 1.6 µM (≈ 0.754 µg/mL) |  | 0.2 µM (≈ 0.0943 µg/mL) | 0.8 µM (≈ 0.377 µg/mL) | 
5 | C[C@@H](O)[C@H](NC(=O)c1ccc(C#Cc2ccc(CNCc3nccs3)cc2)cc1)C(=O)NO [Compound 359] | <=0.1 μM | 0.4 µM (≈ 0.186 µg/mL) | 0.2 µM (≈ 0.0929 µg/mL) | 0.2 µM (≈ 0.0929 µg/mL) | <=0.1 μM | <=0.1 μM | <=0.1 μM | <=0.1 μM | 0.2 µM (≈ 0.0929 µg/mL) | 0.4 µM (≈ 0.186 µg/mL) |  |  |  | 
6 | CC(C)(O)C(NC(=O)c1ccc(C#Cc2ccc(CNCc3ccco3)cc2)cc1)C(=O)NO (stereo not drawn) [Compound 577] | <=0.1 μM | 0.8 µM (≈ 0.369 µg/mL) | 0.4 µM (≈ 0.185 µg/mL) | 0.2 µM (≈ 0.0923 µg/mL) | <=0.1 μM | <=0.1 μM | <=0.1 μM | <=0.1 μM | 0.2 µM (≈ 0.0923 µg/mL) | 0.4 µM (≈ 0.185 µg/mL) |  |  |  | 
7 | Cc1ccc(CNCc2ccc(C#Cc3ccc(C(=O)NC(C(=O)NO)C(C)C)cc3)cc2)cc1 (stereo not drawn) [Compound 292] |  | 1.6 µM (≈ 0.751 µg/mL) | 0.4 µM (≈ 0.188 µg/mL) | 0.8 µM (≈ 0.376 µg/mL) | <=0.1 μM |  |  |  | 0.8 µM (≈ 0.376 µg/mL) | 0.8 µM (≈ 0.376 µg/mL) | 0.4 µM (≈ 0.188 µg/mL) | 0.4 µM (≈ 0.188 µg/mL) | 0.4 µM (≈ 0.188 µg/mL) | 0.2 µM (≈ 0.0939 µg/mL)
8 | CC(C)(C(NC(=O)c1ccc(C#Cc2ccc(CNCc3ccncc3)cc2)cc1)C(=O)NO)S(C)(=O)=O (stereo not drawn) [C. 607] | <=0.1 μM | 0.8 µM (≈ 0.428 µg/mL) | 0.4 µM (≈ 0.214 µg/mL) | 0.4 µM (≈ 0.214 µg/mL) | <=0.1 μM | <=0.1 μM | <=0.1 μM | <=0.1 μM | 0.4 µM (≈ 0.214 µg/mL) | 0.4 µM (≈ 0.214 µg/mL) |  |  |  | 
9 | CSC(C)(C)[C@H](NC(=O)c1ccc(C#Cc2ccc(CNCc3nccs3)cc2)cc1)C(=O)NO [Compound 600] |  | 1.6 µM (≈ 0.814 µg/mL) | 0.8 µM (≈ 0.407 µg/mL) | 1.6 µM (≈ 0.814 µg/mL) | <=0.1 μM | <=0.1 μM | <=0.1 μM |  | 0.8 µM (≈ 0.407 µg/mL) | 0.8 µM (≈ 0.407 µg/mL) |  | 0.4 µM (≈ 0.203 µg/mL) | 0.2 µM (≈ 0.102 µg/mL) | 
10 | CC(C)([C@H](NC(=O)c1ccc(C#Cc2ccc(CNCc3cccs3)cc2)cc1)C(=O)NO)S(C)(=O)=O [Compound 617] | <=0.1 μM | 0.8 µM (≈ 0.432 µg/mL) | 0.4 µM (≈ 0.216 µg/mL) | 0.2 µM (≈ 0.108 µg/mL) | <=0.1 μM | <=0.1 μM | <=0.1 μM | <=0.1 μM | 0.2 µM (≈ 0.108 µg/mL) | 0.4 µM (≈ 0.216 µg/mL) |  |  |  | 
11 | CC(C)(N)C(NC(=O)c1ccc(C#Cc2ccc(CNCc3nccs3)cc2)cc1)C(=O)NO (stereo not drawn) [Compound 562] | <=0.1 μM | 1.6 µM (≈ 0.764 µg/mL) | 0.8 µM (≈ 0.382 µg/mL) | 0.8 µM (≈ 0.382 µg/mL) | <=0.1 μM | <=0.1 μM | <=0.1 μM | <=0.1 μM | 0.8 µM (≈ 0.382 µg/mL) | 0.8 µM (≈ 0.382 µg/mL) |  |  |  | 
12 | C[C@@H](O)[C@H](NC(=O)c1ccc(C#Cc2ccc(CNCc3ccccn3)cc2)cc1)C(=O)NO [C. 258] |  | 1.6 µM (≈ 0.734 µg/mL) | 0.4 µM (≈ 0.183 µg/mL) | 0.8 µM (≈ 0.367 µg/mL) | <=0.1 μM | <=0.1 μM | <=0.1 μM |  | 0.8 µM (≈ 0.367 µg/mL) | 0.8 µM (≈ 0.367 µg/mL) |  | 0.2 µM (≈ 0.0917 µg/mL) | 0.2 µM (≈ 0.0917 µg/mL) | 
13 | CC(C)C(NC(=O)c1ccc(C#Cc2ccc(CNCc3cccnc3)cc2)cc1)C(=O)NO (stereo not drawn) [Compound 287] | <=0.1 μM | 0.8 µM (≈ 0.365 µg/mL) | 0.4 µM (≈ 0.183 µg/mL) | 0.4 µM (≈ 0.183 µg/mL) | <=0.1 μM |  | <=0.1 μM |  | 0.8 µM (≈ 0.365 µg/mL) | 0.8 µM (≈ 0.365 µg/mL) | 0.2 µM (≈ 0.0913 µg/mL) | 0.4 µM (≈ 0.183 µg/mL) |  | 
14 | CSC(C)(C)[C@H](NC(=O)c1ccc(C#Cc2ccc(CNCc3nccs3)nc2)cc1)C(=O)NO [Compound 744] |  | 1.6 µM (≈ 0.815 µg/mL) | 0.8 µM (≈ 0.408 µg/mL) | 0.8 µM (≈ 0.408 µg/mL) | <=0.1 μM |  |  |  | 0.8 µM (≈ 0.408 µg/mL) | 1.6 µM (≈ 0.815 µg/mL) | 0.2 µM (≈ 0.102 µg/mL) | 0.4 µM (≈ 0.204 µg/mL) | 0.4 µM (≈ 0.204 µg/mL) | 0.4 µM (≈ 0.204 µg/mL)
15 | CCC(C)C(NC(=O)c1ccc(C#Cc2ccc(CNCc3ccco3)cc2)cc1)C(=O)NO (stereo not drawn) [Compound 301] | <=0.1 μM | 1.6 µM (≈ 0.735 µg/mL) | 0.4 µM (≈ 0.184 µg/mL) | 0.8 µM (≈ 0.368 µg/mL) | <=0.1 μM |  |  |  | 0.8 µM (≈ 0.368 µg/mL) | 0.8 µM (≈ 0.368 µg/mL) | 0.4 µM (≈ 0.184 µg/mL) | 0.8 µM (≈ 0.368 µg/mL) |  | 0.4 µM (≈ 0.184 µg/mL)
